In patent US20220071233A1, “IN VITRO INSECT MUSCLE AS A NUTRITION SOURCE” (Trustees of Tufts College, priority 2018, published 2022):
“Also recorded” adds a separate entry of the source.

Key:
[1] = average adult; cited from earlier work
DrAMPCs [2] = assay: CyQuant proliferation assay after hormone treatment; format: cell-based, Drosophila melanogaster
Experimental: Drosophila melanogaster adult muscle progenitor-like cells (DrAMPCs) were acquired from Kerafast (Boston, Mass.) (#EF4006). The cell line was originally immortalized by the Persimmon Research Group at Harvard University, and was derived from primary embryo cultures in which Gal4 drives Ras^V12 and GFP expression. DrAMPCs were cultured in insect growth media composed of Schneider's Insect Medium from Sigma-Aldrich (St. Louis, Mo.) (#S0146) supplemented with 10% heat inactivated fetal bovine serum from ThermoFisher (Waltham, Mass.) (#16140) and 1% penicillin/streptomycin (ThermoFisher, #15140122). For serum-free growth media experiments, media consisted of Ex-Cell 405 Serum-Free Medium (Sigma-Aldrich, #14405C) and 1% penicillin/streptomycin. For static culture, DrAMPCs were cultured in either plasma-treated flasks (ThermoFisher, #156499) or ultra-low attachment flasks (Corning, N.Y.) (#CLS3814) and incubated at 19° C. in a temperature-controlled incubator from VWR (Radnor, Pa.) (#89511-416). For suspension culture, DrAMPCs were cultured in shaker flasks (ThermoFisher, #4115-0250) on an orbital shaker set at 40 rpm at room temperature. When indicated, dextran sulfate (Sigma-Aldrich, #67578) was supplemented to serum-free media by dissolution and sterile filtration with 0.2 μm bottle top filters (ThermoFisher, #595-3320). For hormone treatment and differentiation experiments, DrAMPCs were cultured in insect growth media or serum-free media supplemented with methoprene (Sigma-Aldrich, #33375) and/or 20-hydroxyecdysone (Sigma-Aldrich, #H5142) which were dissolved in DMSO (Sigma-Aldrich, #D8418). DrAMPCs were seeded at 75,000 or 300,000 cells/cm^2 in 2D culture and 1,000,000 cells/sponge in 3D culture. […]
Cell adhesion to tissue culture plastic and chitosan films was quantified via a MTS Assay from Promega (Madison, Wis.) (#G3582) by measuring absorbance after 2.5-hour incubation with the MTS reagent. Cell proliferation and viability were measured by fluorescence, Live/Dead kit (ThermoFisher, #L3224) stained image analysis or CyQuant proliferation assays (ThermoFisher, #C7026). For fluorescence measurements, GFP-expressing DrAMPCs were imaged on a fluorescence microscope over the course of a week using the automated multi-point capture feature. Fluorescence was quantified on Fiji software and normalized to the values determined at the first time-point. For Live/Dead stained image analysis, cells were stained following the kit protocols and imaged on a fluorescence microscope. The images were analyzed with Fiji to quantify the viability and total cell population over time. […] Microplate measurements were performed on a SpectraMax M2 reader from Molecular Devices (San Jose, Calif.). Cell populations were determined from a standard curve.

DrAMPCs [3] = assay: Cell elongation and differentiation after hormone treatment (image analysis, immunostaining); format: cell-based, Drosophila melanogaster
Experimental: Drosophila melanogaster adult muscle progenitor-like cells (DrAMPCs) were acquired from Kerafast (Boston, Mass.) (#EF4006). The cell line was originally immortalized by the Persimmon Research Group at Harvard University, and was derived from primary embryo cultures in which Gal4 drives Ras^V12 and GFP expression. DrAMPCs were cultured in insect growth media composed of Schneider's Insect Medium from Sigma-Aldrich (St. Louis, Mo.) (#S0146) supplemented with 10% heat inactivated fetal bovine serum from ThermoFisher (Waltham, Mass.) (#16140) and 1% penicillin/streptomycin (ThermoFisher, #15140122). For serum-free growth media experiments, media consisted of Ex-Cell 405 Serum-Free Medium (Sigma-Aldrich, #14405C) and 1% penicillin/streptomycin. For static culture, DrAMPCs were cultured in either plasma-treated flasks (ThermoFisher, #156499) or ultra-low attachment flasks (Corning, N.Y.) (#CLS3814) and incubated at 19° C. in a temperature-controlled incubator from VWR (Radnor, Pa.) (#89511-416). For suspension culture, DrAMPCs were cultured in shaker flasks (ThermoFisher, #4115-0250) on an orbital shaker set at 40 rpm at room temperature. When indicated, dextran sulfate (Sigma-Aldrich, #67578) was supplemented to serum-free media by dissolution and sterile filtration with 0.2 μm bottle top filters (ThermoFisher, #595-3320). For hormone treatment and differentiation experiments, DrAMPCs were cultured in insect growth media or serum-free media supplemented with methoprene (Sigma-Aldrich, #33375) and/or 20-hydroxyecdysone (Sigma-Aldrich, #H5142) which were dissolved in DMSO (Sigma-Aldrich, #D8418). DrAMPCs were seeded at 75,000 or 300,000 cells/cm^2 in 2D culture and 1,000,000 cells/sponge in 3D culture. For mammalian controls, C2C12 cells from ATTC (Manassas, Va.) (#CRL-1772) were cultured in growth media composed of DMEM+Glutamax (ThermoFisher, #10566) supplemented with 10% heat inactivated fetal bovine serum and 1% penicillin/streptomycin. C2C12s were seeded at 10,000 cells/cm^2.
Cell viability was determined by a Live/Dead staining kit (ThermoFisher, #L3224). At time of assay, media was gently aspirated from the cell surface and cells were rinsed with phosphate buffered saline (PBS) (ThermoFisher, #14040133). Cells were stained with 2 μM calcein AM and 4 μM EthD-1 solution for 30 minutes at room temperature in the dark and imaged with a fluorescence microscope. For immunocytochemical staining, media was gently aspirated from cells and the cell surface was rinsed with PBS. Cells were fixed with 4% paraformaldehyde from Fisher Scientific (Hampton, N.H.) (#J61899AK) for 10 minutes and rinsed with PBS. Cells were then permeabilized with 0.5% Triton X-100 and rinsed with blocking buffer consisting of phosphate buffered saline, 5% fetal bovine serum and 0.05% sodium azide. Cells were incubated in blocking buffer for 15 minutes before addition of primary antibody, then incubated at 4° C. overnight. Cells were rinsed and incubated with fresh blocking buffer for 15 minutes before addition of secondary antibody, then incubated in the dark on ice for 1 hour. Again, cells were rinsed and incubated with fresh blocking buffer for 15 minutes before counterstaining and mounting with DAPI mounting medium from Abcam (Cambridge, UK) (#ab104139). Detailed antibody information is available in Table 5. Fluorescence imaging was performed on a Keyence microscope (Osaka, Japan) (#BZ-X700). Confocal imaging was performed on a TCS SP8 microscope from Leica Microsystems (Wetzlar, Germany).

DrAMPCs [4] = assay: Adhesion and differentiation on chitosan sponge scaffolds; format: cell-based, Drosophila melanogaster
Experimental: Mushroom chitosan of 100 kDa molecular weight from Chinova Bioworks (New Brunswick, Canada) was dissolved in 2% acetic acid in distilled water for 12 hours at room temperature on a stir plate. The chitosan solution was centrifuged at 16,880×g for 3 hours to remove undissolved particles and diluted in distilled water to the desired concentrations (1%, 2% and 4%). Concentrations were verified by drying small volumes at 60° C. for 2 hours and calculating dry weight/wet weight. To prepare films, the solution was cast on plastic and allowed to dry overnight. To prepare sponges, the solution was poured into PDMS molds with an aluminum sheet separating one side of the mold from a separate chamber. Liquid nitrogen was poured into the chamber opposite the chitosan solution and continually replenished until the entire solution had frozen across the temperature gradient. Samples were then lyophilized for 48 hours. Prior to sterilization and seeding, films and sponges were submerged in 1M sodium carbonate for 1 hour at room temperature and subsequently rinsed three times in distilled water for 20 minutes and soaked in distilled water overnight. For hydrated mechanical analysis, sectioned sponges were soaked in PBS prior to testing.
Sponges used for seeding were cylinders 6 mm in diameter and 1.5 mm thick. […]

[5] = system: Manduca sexta embryonic precursor cell (Ms-EPCs); assay: Ms-EPC culture and differentiation; format: cell-based
DrAMPCs [6] = assay: Potassium induced contraction; format: cell-based, Drosophila melanogaster
Experimental: Cells were differentiated for 5 days before the experiment. High K+ concentration media was produced by dissolving KCl in growth media at the indicated concentration. Cells were imaged on a Phase Contrast microscope before growth media was aspirated and replaced with 600 mM K+ media. Cells were imaged over a duration of 15 minutes.

DrAMPCs [7] = assay: Surface coatings: myosin heavy chain expression and cell attachment (image fluorescence quantification); format: cell-based, Drosophila melanogaster; settings: cultures on coated surface
DrAMPCs [8] = assay: Agitated suspension culture in shaker flasks (aggregation); format: cell-based, Drosophila melanogaster; settings: 100 μg/mL dextran sulfate in EC405, shaker flasks
Experimental: It was noted that when static culture flasks became over-confluent, the cells continued to grow in three-dimensional aggregates or in suspension. […] The cells were then transitioned from static suspension culture to agitated suspension culture with the use of shaker flasks incubated at room temperature. In agitated suspension, the cells formed aggregates (FIG. 1G). […] After expansion in suspension culture and removal of dextran sulfate, the cells transitioned back to adherent monolayers and retained a myoblast-like morphology.
Drosophila melanogaster adult muscle progenitor-like cells (DrAMPCs) were acquired from Kerafast (Boston, Mass.) (#EF4006). The cell line was originally immortalized by the Persimmon Research Group at Harvard University, and was derived from primary embryo cultures in which Gal4 drives Ras^V12 and GFP expression. DrAMPCs were cultured in insect growth media composed of Schneider's Insect Medium from Sigma-Aldrich (St. Louis, Mo.) (#S0146) supplemented with 10% heat inactivated fetal bovine serum from ThermoFisher (Waltham, Mass.) (#16140) and 1% penicillin/streptomycin (ThermoFisher, #15140122). For serum-free growth media experiments, media consisted of Ex-Cell 405 Serum-Free Medium (Sigma-Aldrich, #14405C) and 1% penicillin/streptomycin. […]

DrAMPCs [9] = assay: Adhesion and growth on mushroom chitosan films (MTS assay, fluorescence microscopy); format: cell-based, Drosophila melanogaster; settings: 0.1% gelatin solution coating
Experimental: Cell adhesion to tissue culture plastic and chitosan films was quantified via a MTS Assay from Promega (Madison, Wis.) (#G3582) by measuring absorbance after 2.5-hour incubation with the MTS reagent. Cell proliferation and viability were measured by fluorescence, Live/Dead kit (ThermoFisher, #L3224) stained image analysis or CyQuant proliferation assays (ThermoFisher, #C7026). For fluorescence measurements, GFP-expressing DrAMPCs were imaged on a fluorescence microscope over the course of a week using the automated multi-point capture feature. Fluorescence was quantified on Fiji software and normalized to the values determined at the first time-point. For Live/Dead stained image analysis, cells were stained following the kit protocols and imaged on a fluorescence microscope. The images were analyzed with Fiji to quantify the viability and total cell population over time. For CyQuant proliferation assays, cells were plated in 96-well plates for each time-point. At each time-point, media was blotted from the plates and plates were stored at −80° C. After all time-points were collected, plates were thawed to room temperature and stained with CyQuant working solution for 5 minutes. Microplate measurements were performed on a SpectraMax M2 reader from Molecular Devices (San Jose, Calif.). Cell populations were determined from a standard curve. […]

[10] = both serum-supplemented and serum-free cultures

Q: Which results are given for COC(C)(C)CCC[C@H](C)C/C=C/C(C)=C/C(=O)OC(C)C (racemic) [methoprene]?
A: recommended exposure [1]: 0.3750 mg/day; comparison of treatment levels on proliferation (DrAMPCs [2]; 500 ng/mL vs 1,000 ng/mL): the 500 ng/mL treatment level had a larger effect than the 1,000 ng/mL treatment; proliferation versus control groups (DrAMPCs [2]; 500 or 1,000 ng/mL, day 1 and 5): higher proliferation than control groups; proliferation (DrAMPCs [2]; [10]): increased proliferation; average cell length less than control cells (DrAMPCs [3]; 500 ng/mL): 8 μm; cell elongation (preliminary sign of differentiation) (DrAMPCs [3]; JH treatment): inhibited cell elongation

Q: Which “generation of myosin heavy chain-expressing cells” value (DrAMPCs [4]; on plastic and chitosan scaffolds) does the source give for CC(C)(O)CC[C@@H](O)[C@](C)(O)[C@H]1CC[C@@]2(O)C3=CC(=O)[C@@H]4C[C@@H](O)[C@@H](O)C[C@]4(C)[C@H]3CC[C@]12C [20-hydroxyecdysone] here?
A: Its value is “myosin heavy chain-expressing cells could be generated (albeit at low efficiency)”.

Q: And the “fraction of cells on chitosan scaffolds differentiated” value (DrAMPCs [4]; treated with 20-hydroxyecdysone)?
A: Its value is < 1%.

Q: What about the “growth rates versus control groups” value (DrAMPCs [2]; 0, 500 or 1000 ng/mL 20-HE) of the same compound?
A: The value was “did not significantly differ from control groups”.

Q: And the “differentiation of primary Ms-EPC cells” value ([5]; differentiated with 20-hydroxyecdysone)?
A: Its value is “multinucleated, striated and express myosin heavy chain”.

Q: And the “concentration able to trigger cell elongation” value (DrAMPCs [3]; as low as)?
A: The value was 40 ng/mL.

Q: What about the differentiation (DrAMPCs [3]; [10]) of the same compound?
A: The differentiation was “triggered differentiation”.

Q: And the “differentiation of EC405 adapted cells” value (DrAMPCs [3]; small fraction of cells, 1 μg/mL 20-HE for 5 days)?
A: Its value is “differentiate and form long, multinucleated myotubes that express myosin heavy chain”.

Q: What does the source list for [Cl-].[K+] [K^+, KCl]?
A: cell viability after potassium treatment (DrAMPCs [6]): 95%; cell contraction (DrAMPCs [6]; 300 mM K+): did not contract; cell contraction (DrAMPCs [6]; 600 mM K+): did contract; cell fractional shortening, myoblasts (elongated cells) (DrAMPCs [6]; 600 mM K+, image analysis, n=12): 31.6%±14.8%; cell fractional shortening, spherical proliferative precursor cells (DrAMPCs [6]; 600 mM K+, image analysis, n=14): 1.6%±16.2%

Q: Which cell attachment (DrAMPCs [7]) does the source give for Concanavalin A here?
A: Its cell attachment is “do not increase cell attachment”.

Q: And the “expression of myosin heavy chain in differentiated DrAMPCs” value (DrAMPCs [7])?
A: Its value is “may increase”.

Q: With dextran sulfate as the compound, how does the “cell aggregation in agitated suspension” value (DrAMPCs [8]) read?
A: Its value is “sufficient to reduce aggregation and promote a single cell suspension”.

Q: And the “cell aggregation in agitated suspension” value (DrAMPCs [8]; listed as Dextran sulfate)?
A: The value was “sufficient to reduce cell aggregation”.

Q: Which “cell adhesion and growth on gelatin-coated chitosan films” value (DrAMPCs [9]) does the source give for gelatin here?
A: Its value is “did not increase cell adhesion to chitosan films; also recorded: grow in aggregates and were detached from the center of the well during the PBS rinse”.

Q: What about the “cell adhesion to gelatin coated tissue culture plastic” value (DrAMPCs [9]) of the same compound?
A: The value was “improve cell adhesion”.

Q: For laminin, which cell attachment (DrAMPCs [7]) is on record?
A: Its cell attachment is “do not increase cell attachment”.

Q: And the “expression of myosin heavy chain in differentiated DrAMPCs” value (DrAMPCs [7])?
A: The value was “may increase”.

Q: For poly-lysine, which “cell morphology of Ms-EPCs” value ([5]; poly-lysine coated plastic) is on record?
A: Its value is “more cell elongation, perhaps differentiation”.
